# Measured values taken from patent US10683269B2 (MISSION THERAPEUTICS LIMITED, priority 2016, dated 2020).
# Like-named read-outs stand apart in the source and are kept apart here.
# Biological target: T1, USP7 (Homo sapiens, UniProt Q93009)
# T1 construct: The USP7 construct was PCR amplified and cloned into a pFLAG-CMV-6a vector (Sigma-Aldrich) with an N-terminal FLAG tag; made in house; host or cells: HEK293T
# Test: USP7 biochemical IC50 assay (fluorescence polarisation, TAMRA labelled peptide linked to ubiquitin via an iso-peptide bond)
# Details: 30 min pre-incubation of enzyme and compound, read after 2 hr incubation at room temperature
# Outline: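 Fluorescence polarisation at 540 nm excitation/590 nm emission, read immediately and after 2 hr at room temperature, following addition of 50 nM TAMRA-labelled iso-peptide ubiquitin substrate.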
# T1 sequence (Q93009 whole entry): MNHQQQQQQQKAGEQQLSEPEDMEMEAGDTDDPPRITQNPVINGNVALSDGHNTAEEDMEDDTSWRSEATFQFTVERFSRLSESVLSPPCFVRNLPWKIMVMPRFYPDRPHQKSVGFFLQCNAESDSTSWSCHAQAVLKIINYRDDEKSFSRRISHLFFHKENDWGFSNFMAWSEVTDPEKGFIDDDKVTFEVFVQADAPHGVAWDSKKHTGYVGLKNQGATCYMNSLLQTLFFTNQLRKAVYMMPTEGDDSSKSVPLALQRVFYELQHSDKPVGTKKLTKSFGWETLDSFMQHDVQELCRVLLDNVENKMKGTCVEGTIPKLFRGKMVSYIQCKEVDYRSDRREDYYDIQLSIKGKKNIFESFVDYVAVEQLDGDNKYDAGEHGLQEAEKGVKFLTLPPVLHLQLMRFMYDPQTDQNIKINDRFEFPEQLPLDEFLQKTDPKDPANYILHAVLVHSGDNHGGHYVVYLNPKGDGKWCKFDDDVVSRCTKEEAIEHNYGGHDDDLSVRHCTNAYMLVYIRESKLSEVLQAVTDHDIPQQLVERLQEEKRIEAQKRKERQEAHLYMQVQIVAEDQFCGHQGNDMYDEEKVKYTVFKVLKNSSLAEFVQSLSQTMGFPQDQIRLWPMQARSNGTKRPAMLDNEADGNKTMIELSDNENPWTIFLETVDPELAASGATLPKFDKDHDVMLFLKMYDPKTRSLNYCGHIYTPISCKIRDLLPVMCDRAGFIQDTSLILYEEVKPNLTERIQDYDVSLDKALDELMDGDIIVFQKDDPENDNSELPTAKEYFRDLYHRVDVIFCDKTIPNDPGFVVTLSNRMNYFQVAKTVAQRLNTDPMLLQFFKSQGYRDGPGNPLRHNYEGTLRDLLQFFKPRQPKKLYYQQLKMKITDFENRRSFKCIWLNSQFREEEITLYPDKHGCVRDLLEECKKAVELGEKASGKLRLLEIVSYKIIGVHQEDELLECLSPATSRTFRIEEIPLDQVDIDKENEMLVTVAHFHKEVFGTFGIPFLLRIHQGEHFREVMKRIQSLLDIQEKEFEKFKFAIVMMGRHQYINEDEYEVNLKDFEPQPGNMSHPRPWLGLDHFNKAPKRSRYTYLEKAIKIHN
SMILES,IC50 (read-out: IC50 range) [µM],IC50 (IC50 range) [µM]
"N#CN1Cc2nc(NCc3cncs3)nc(-c3ccccc3)c2C1 [Example 119, 4-phenyl-2-((thiazol-5-ylmethyl)amino)-5,7-dihydro-6H-pyrrolo[3,4-d]pyrimidine-6-carbonitrile]",1 to 10,–
"N#CN1Cc2cc(NC(=O)c3cccnc3)cc(-c3ccccc3)c2C1 [Example 23, N-(2-cyano-7-phenylisoindolin-5-yl)nicotinamide]",30 to 100,–
"N#Cc1cccc(-c2nc3c(c(N4CCc5ccccc5C4)n2)CN(C#N)C3)c1 [Example 141, 2-(3-cyanophenyl)-4-(3,4-dihydroisoquinolin-2(1H)-yl)-5,7-dihydro-6H-pyrrolo[3,4-d]pyrimidine-6-carbonitrile]",1 to 10,–
"CN1CCOC(CNc2nc3c(c(N4CCc5ccccc5C4)n2)CN(C#N)C3)C1 (stereo not shown) [Example 197, 4-(3,4-dihydroisoquinolin-2(1H)-yl)-2-(((4-methylmorpholin-2-yl)methyl)amino)-5,7-dihydro-6H-pyrrolo[3,4-d]pyrimidine-6-carbonitrile]",1 to 10,–
"N#Cc1ccccc1-c1cc(NC[C@H](O)CO)cc2c1CN(C#N)C2 [Example 283, (S)-4-(2-cyanophenyl)-6-((2,3-dihydroxypropyl)amino)isoindoline-2-carbonitrile]",< 1,–
"CN1CCC[C@@H](C(=O)Nc2cc3c(c(-c4cccc(F)c4)c2)CN(C#N)C3)C1 [Example 25, (R)-N-(2-cyano-7-(3-fluorophenyl)isoindolin-5-yl)-1-methylpiperidine-3-carboxamide]",< 1,–
"N#Cc1cc(F)ccc1-c1cccc2c1CN(C#N)C2 [Example 167, 4-(2-cyano-4-fluorophenyl)isoindoline-2-carbonitrile]",1 to 10,–
"CN1CCOC(CN(C)c2nc3c(c(-c4ccccc4)n2)CN(C#N)C3)C1 (stereo not shown) [Example 191, 2-(methyl((4-methylmorpholin-2-yl)methyl)amino)-4-phenyl-5,7-dihydro-6H-pyrrolo[3,4-d]pyrimidine-6-carbonitrile]",1 to 10,–
"N#CN1Cc2ncnc(N3CCC(OCc4ccccc4)CC3)c2C1 [Example 185, 4-(4-(benzyloxy)piperidin-1-yl)-5,7-dihydro-6H-pyrrolo[3,4-d]pyriimidine-6-carbonitrile]",–,10 to 30
"CC(NC(=O)c1cccc(-c2cccc3c2CN(C#N)C3)c1)c1ccccc1 (stereo not shown) [Example 74, 3-(2-cyanoisoindolin-4-yl)-N-(1-phenylethyl)benzamide]",1 to 10,–
"Cc1[nH]ncc1-c1nc2c(c(N3CCc4cccnc4C3)n1)CN(C#N)C2 [Example 147, 4-(5,8-dihydro-1,7-naphthyridin-7(6H)-yl)-2-(5-methyl-1H-pyrazol-4-yl)-5,7-dihydro-6H-pyrrolo[3,4-d]pyrimidine-6-carbonitrile]",1 to 10,–
"Cc1cc(C#N)cc(C)c1-c1cccc2c1CN(C#N)C2 [Example 67, 4-(4-cyano-2,6-dimethylphenyl)isoindoline-2-carbonitrile]",1 to 10,–
"N#Cc1cc(F)ccc1-c1cc(C(N)=O)cc2c1CN(C#N)C2 [Example 235, 2-cyano-7-(2-cyano-4-fluorophenyl)isoindoline-5-carboxamide]",1 to 10,–
"Cc1ccc(-c2cccc3c2CN(C#N)C3)c(C(N)=O)c1 [Example 3, 2-(2-cyanoisoindolin-4-yl)-5-methylbenzamide]",1 to 10,–
"N#CN1Cc2nc(NCC3CCOCC3)cc(-c3ccc(F)cc3)c2C1 [Example 246, 4-(4-fluorophenyl)-2-(((tetrahydro-2H-pyran-4-yl)methyl)amino)-5,7-dihydro-6H-pyrrolo[3,4-b]pyridine-6-carbonitrile]",1 to 10,–
"Cn1nccc1CNc1cc(-c2ccc(F)cc2)c2c(n1)CN(C#N)C2 [Example 248, 4-(4-fluorophenyl)-2-(((1-methyl-1H-pyrazol-5-yl)methyl)amino)-5,7-dihydro-6H-pyrrolo[3,4-b]pyridine-6-carbonitrile]",< 1,–
"N#CN1Cc2nc(Nc3ccccc3)nc(-c3ccccc3)c2C1 [Example 116, 4-phenyl-2-(phenylamino)-5,7-dihydro-6H-pyrrolo[3,4-d]pyrimidine-6-carbonitrile]",1 to 10,–
"CN1CCC[C@@H](C(=O)Nc2cc3c(c(-c4cccc(Cl)c4)c2)CN(C#N)C3)C1 [Example 34, (R)-N-(7-(3-chlorophenyl)-2-cyanoisoindolin-5-yl)-1-methylpiperidine-3-carboxamide]",1 to 10,–
"CC(=O)c1ccccc1-c1cccc2c1CN(C#N)C2 [Example 159, 4-(2-acetylphenyl)isoindoline-2-carbonitrile]",1 to 10,–
"N#Cc1ccc(-c2cc(N3CCS(=O)(=O)CC3)cc3c2CN(C#N)C3)cc1 [Example 278, 4-(4-cyanophenyl)-6-(1,1-dioxidothiomorpholino)isoindoline-2-carbonitrile]",1 to 10,–
"CNC(=O)c1cc2c(c(-c3ccc(C#N)cc3C#N)c1)CN(C#N)C2 [Example 239, 2-cyano-7-(2,4-dicyanophenyl)-N-methylisoindoline-5-carboxamide]",1 to 10,–
"COc1ccc(-c2cccc3c2CN(C#N)C3)c(C#N)c1 [Example 171, 4-(2-cyano-4-methoxyphenyl)isoindoline-2-carbonitrile]",1 to 10,–
"CC1c2cccc(-c3ccc(Cl)cc3C(N)=O)c2CN1C#N (single isomer, unassigned) [Example 258, 5-chloro-2-(2-cyano-1-methylisoindolin-4-yl)benzamide]",10 to 30,–
"N#Cc1cccc(F)c1-c1cccc2c1CN(C#N)C2 [Example 168, 4-(2-cyano-6-fluorophenyl)isoindoline-2-carbonitrile]",1 to 10,–
"CN1CCCC(CNc2nc3c(c(N4CCc5ccccc5C4)n2)CN(C#N)C3)C1 (stereo not shown) [Example 196, 4-(3,4-dihydroisoquinolin-2(1H)-yl)-2-(((1-methylpiperidin-3-yl)methyl)amino)-5,7-dihydro-6H-pyrrolo[3,4-d]pyrimidine-6-carbonitrile]",1 to 10,–
"N#Cc1ccc(-c2cc(NCC3CCOCC3)cc3c2CN(C#N)C3)c(C(N)=O)c1 [Example 281, 5-Cyano-2-(2-cyano-6-(((tetrahydro-2H-pyran-4-yl)methyl)amino)isoindolin-4-yl)benzamide]",1 to 10,–
"CNC(=O)NCc1cc2c(c(-c3ccc(C#N)cc3)c1)CN(C#N)C2 [Example 227, 1-((2-cyano-7-(4-cyanophenyl)isoindolin-5-yl)methyl)-3-methylurea]",< 1,–

# More lines, now with the values ahead:
IC50 (read-out: IC50 range) [µM],IC50 (IC50 range) [µM],SMILES
1 to 10,–,"CC(C)OC(=O)NCc1cc2c(c(-c3ccc(C#N)cc3)c1)CN(C#N)C2 [Example 224, isopropyl ((2-cyano-7-(4-cyanophenyl)isoindolin-5-yl)methyl)carbamate]"
10 to 30,–,"CC(=O)Nc1nc2c(c(N3CCCC3)n1)CN(C#N)C2 [Example 148, N-(6-cyano-4-(pyrrolidin-1-yl)-6,7-dihydro-5H-pyrrolo[3,4-d]pyrimidin-2-yl)acetamide]"
1 to 10,–,"N#CN1Cc2cccc(NC(=O)c3ccc(S(=O)(=O)Nc4ccccc4)cc3)c2C1 [Example 92, N-(2-cyanoisoindolin-4-yl)-4-(N-phenylsulfamoyl)benzamide]"
< 1,–,"CN1CCC[C@@H](C(=O)Nc2cc3c(c(-c4ccc(C#N)cc4)c2)CN(C#N)C3)C1 [Example 26, (R)-N-(2-cyano-7-(4-cyanophenyl)isoindolin-5-yl)-1-methylpiperidine-3-carboxamide]"
10 to 30,–,"COc1ccc(C#N)c(-c2cccc3c2CN(C#N)C3)n1 [Example 173, 4-(3-cyano-6-methoxypyridin-2-yl)isoindoline-2-carbonitrile]"
1 to 10,–,"N#CN1Cc2nc(-c3ccccc3C(N)=O)nc(N3CCc4ccccc4C3)c2C1 [Example 138, 2-(6-cyano-4-(3,4-dihydroisoquinolin-2(1H)-yl)-6,7-dihydro-5H-pyrrolo[3,4-d]pyrimidin-2-yl)benzamide]"
1 to 10,–,"N#CN1Cc2cccc(NC(=O)c3cc(-c4cnccn4)[nH]n3)c2C1 [Example 86, N-(2-cyanoisoindolin-4-yl)-5-(pyrazin-2-yl)-1H-pyrazole-3-carboxamide]"
1 to 10,–,"COC(=O)c1cc2c(c(-c3ccccc3)c1)CN(C#N)C2 [Example 98, methyl 2-cyano-7-phenylisoindoline-5-carboxylate]"
1 to 10,–,"COc1cccc(-c2nnc(-c3cnn(C)c3)c3c2CN(C#N)C3)c1 [Example 182, 1-(3-methoxyphenyl)-4-(1-methyl-1H-pyrazol-4-yl)-5,7-dihydro-6H-pyrrolo[3,4-d]pyridazine-6-carbonitrile]"
10 to 30,–,"N#CN1Cc2cccc(-c3ccccc3C(=O)N3CCCC3)c2C1 [Example 155, 4-(2-(pyrrolidine-1-carbonyl)phenyl)isoindoline-2-carbonitrile]"
< 1,–,"CN1CCC[C@@H](C(=O)Nc2cc3c(c(-c4ccc(Cl)cc4)c2)CN(C#N)C3)C1 [Example 33, (R)-N-(7-(4-chlorophenyl)-2-cyanoisoindolin-5-yl)-1-methylpiperidine-3-carboxamide]"
1 to 10,–,"COc1cccc(-c2cccc3c2CN(C#N)C3)c1C#N [Example 170, 4-(2-cyano-3-methoxyphenyl)isoindoline-2-carbonitrile]"
1 to 10,–,"N#CN1Cc2nc(NCc3ccccn3)nc(-c3ccccc3)c2C1 [Example 117, 4-phenyl-2-((pyridin-2-ylmethyl)amino)-5,7-dihydro-6H-pyrrolo[3,4-d]pyrimidine-6-carbonitrile]"
< 1,–,"CN1CCC[C@H](C(=O)Nc2cc3c(c(-c4ccccc4)c2)CN(C#N)C3)C1 [Example 37, (S)—N-(2-cyano-7-phenylisoindolin-5-yl)-1-methylpiperidine-3-carboxamide]"
1 to 10,–,"CS(=O)(=O)Cc1cc2c(c(-c3ccccc3)c1)CN(C#N)C2 [Example 253, 6-((methylsulfonyl)methyl)-4-phenylisoindoline-2-carbonitrile]"
1 to 10,–,"CC(=O)Nc1cc2c(c(-c3ccccc3C(N)=O)c1)CN(C#N)C2 [Example 24, 2-(6-acetamido-2-cyanoisoindolin-4-yl)benzamide]"
